Source: article PMC11032351, “Epigenetic modulation through BET bromodomain inhibitors as a novel therapeutic strategy for progranulin-deficient frontotemporal dementia” (Scientific Reports, 2024)
Where a SMILES comes first, the peptide text is derived from it. [ ]: non-standard residue; d: D form. ξ: configuration not given here. Aoe(9ξ) = N[C@@H](CCCCCC(=O)C1CO1)C(=O)O; dPip = O=C(O)[C@H]1CCCCN1

Tests used:
[1] = tested on: GRN mRNA; assay: qPCR of GRN mRNA in human NPCs (enhancer screen and follow-up); type: cell-based; details: human NPCs, 24 h, relative to DMSO
Experimental: All compounds were purchased from commercial vendors. All compounds were made at 1000 × stocks in DMSO (Sigma Aldrich #D2438), except for sodium valproate, which was dissolved in ddH2O. NPCs and neurons were generated and maintained as described above. For treatment, the stock compounds were diluted 1:1000 in NPC media (final DMSO concentration 0.1%), which was then applied to confluent NPCs or 18-day differentiated neurons derived from confluent NPC cultures for indicated time periods.
RNA was generated from each well of a 6-well treated plate of NPCs or neurons. First, media from each well was aspirated, and washed with 1 mL of dPBS. Wells were then lysed with 1 mL TRIzol Reagent (ThermoFisher #11,596,026). Wells were then incubated at room temperature for 5 min, and then RNA was extracted using the DirectZol RNA MiniPrep Kit (Zymo Research #R2052). RNA was stored at − 80 °C until further use. cDNA was generated using the High-Capacity cDNA synthesis Kit with RNase inhibitor (ThermoFisher #4,368,814) using 1000–1200 ng RNA per reaction. cDNA was either used immediately or stored at -20 °C until use, where it was then diluted 1:4 with DNase/RNase-free water (Invitrogen #10,977–015).
qPCR was conducted using the Roche 480 Light Cycler in a 384-well plate. To each well was added 5 μL of TaqMan 2X Gene Expression Master Mix (ThermoFisher #4,369,510), 0.5 μL of 20X TaqMan primer probe (ThermoFisher, GRN: Hs00963707_g1, GAPDH: Cat.#432924E), 0.5 μL of DNase/RNase-free H2O, and 4 μL of above diluted cDNA. Results were normalized to GAPDH, and replicate mean values and standard error of the mean are reported.

[2] = tested on: PGRN-Luc; assay: HMC3 PGRN-luciferase reporter assay; type: cell-based, human; details: HMC3 PGRN-Luc cells, 20 h
Experimental: HMC3 PGRN-Luc cells were trypsinized from confluent T-75 flasks and re-suspended in HMC-3 media at 150,000–200,000 cells/mL. 30 µL of cell suspension was then seeded onto each well of black, 384-well clear-bottom plates (Corning 3712) using the Multidrop Combi (Thermo Fisher). Cells were allowed to adhere to plates in the incubator at 37 °C/5% CO2 for 6–8 h. After 6–8 h, compounds were added to each well using the D300e (Tecan) compound dispenser, and all wells were DMSO-normalized (0.3%). Cells were allowed to incubate with compounds for indicated timeframes.
Plates were removed from the incubator and allowed to cool to RT. 15 µL of media was removed from each well using a multichannel pipette and added to separate Corning 3712 plates for a read of “secreted” PGRN. To both the media-containing plates as well as the cell-containing plates (with 15 µL media remaining) is then added 15 µL of active luminescence reagent (Thermo 18,636) which was generated according to manufacturer’s instructions. Plates were allowed to nutate at RT for 15 min prior to reading using the EnVision (PerkinElmer). For calculation of the internal PGRN-Luc signal, the secreted signal (15 µL media) was subtracted from the signal of the cell-containing plates (with 15 µL media remaining). For “total” PGRN-Luc signal, a sample of media was not aliquoted into a separate plate, and instead, 30 µL of active luminescence reagent was added directly to each well.
For the mivebresib and panobinostat time-course experiment, the above procedure was followed, with the exception that cells were seeded at 66,600 cells/mL in 30 µL media, and allowed to grow overnight prior to compound addition for the indicated timeframes.

[3] = tested on: PGRN protein levels; assay: PGRN quantification (Jess) in human NPCs; type: cell-based; details: 24 h; for enhancement of PGRN protein levels: 100 nM
Experimental: PGRN capillary gel electrophoresis experiments were performed using Jess (Bio-Techne) and data were processed and analyzed using Compass for Simple Western software (version 6.0). Runs were conducted using EZ Standard Pack 1 12-230 kDa (Bio-Techne PS-ST01EZ-8), 12-230 kDa pre-filled plates (PS-PP03), 12-230 kDa separation module (SMW004), anti-rabbit HRP detection ([…]-001), and total protein detection modules (DM-TP01, biotin labeling reagent 042-973) according to the manufacturer's instructions, and with anti-PGRN primary (Abcam ab208777) diluted 1:50 in milk-free antibody dilution buffer (043-524). […] All intensity quantifications are normalized to the total protein assay quantification unless otherwise indicated. NPCs were cultured normally in 6-well plates as described previously. Upon reaching confluency, DMSO or MLN-4924 (Cayman #15,217, 10 mM stock in DMSO) were diluted 1:5000 into NPC media with growth factors. 1 mL of media was aspirated from the cell cultures, and 1 mL of MLN-4924 or DMSO dilutions were then added to respective wells (final well concentration: 1 μM MLN-4924 in select wells, 0.01% DMSO for all wells). Plates returned to the incubator. […] Plates returned to the incubator. After 4 h, to the indicated wells is directly added 1 μL 2 mM mivebresib (MedChem Express HY-100015) in DMSO for a final concentration of 1 μM, or 1 μL DMSO. All plates were returned to the incubator overnight. The next day, 24 h from the addition of mivebresib, plates were removed from the incubator, and all wells were washed with 2 mL PBS, and then lysed in 300 μL M-PER lysis buffer with protease inhibitors. Cells were allowed to lyse for 15 min at 4 °C with light nutation, and then lysate was transferred to a 1.5-mL Eppendorf tube which was then spun down at 20 k rcf at 4 °C for 10 min. 200 μL of supernatant was then transferred to a fresh, labeled Eppendorf rube, which was then stored at - 20 °C prior to further analysis. Sample concentration was quantified using the BCA assay as described above, and normalized to 250 μg/mL in M-PER lysis buffer prior to PGRN quantification using the Jess. NPCs were cultured normally as described previously. 6-well plates were seeded at 300,000 cells/well in 2 mL of NPC media with EGF, bFGF, and heparin as described above. Cells were allowed to grow to confluency for three nights at 37 °C with 5% CO2. […] These solutions were then diluted 1:10 in NPC media with growth factors containing 0.2% DMSO to make 100 nM compound solutions. Treatment wells were washed with 2 mL PBS prior to addition of 2 mL NPC media with growth factors containing compound (or DMSO only) at indicated concentrations (3 replicates per condition, 6 DMSO replicates). Plates were then allowed to incubate at 37 °C with 5% CO2 for 24 h. After 24 h, cells were removed from the incubator, washed with 1 mL PBS, and then lysed with 500 μL M-PER lysis buffer (Thermo Fisher #78,501) with 1 cOmplete Mini, EDTA-free protease inhibitor added (Sigma-Aldrich#11,836,170,001) per 15 mL lysis buffer. Plates were allowed to nutate at 4 °C for 15 min before transferring the lysate to 1.5 mL Eppendorf tubes, which were then spun down at 20,000 rcf at 4 °C for 10 min. 400 μL of the supernatant was then transferred to fresh 1.5-mL Eppendorf tubes, which were then frozen down at - 80 °C prior to further use. Samples were removed from the - 80 °C and concentrations were determined via BCA assay (Thermo Scientific #23,227) using a pre-diluted BSA standard (Life Technologies #23,208) on a 96-well polystyrene plate (Thermo Fisher #12,565,500). Samples were diluted to 0.25 mg/mL using M-PER lysis buffer prior to PGRN quantification using the Jess. NPCs were cultured as described above, and seeded onto coated 24-well plates at 150,000 cells/well in 1 mL NPC media with growth factors. Plates were allowed to grow to ~ 100% confluency for three nights at 37 °C with 5% CO2. […] Plates were allowed to incubate overnight at 37 °C with 5% CO2 for 24 h. […]

Compound | GRN Fold-change (Norm. to GAPDH) ± Std. Error ([1]; dose 10 µM) | other results
Cc1cc(C)c(CNC(=O)c2cc(-c3ccc(CN4CCOCC4)cc3)cc3c2cnn3C2CCCC2)c(=O)[nH]1 [EPZ005687] | 1.18 ± 0.10 | 
O=C(NC1CC1)c1cc(-c2cccs2)on1 [Compound Z220650400] | 1.17 ± 0.10 | 
Cc1c[nH]c(-c2cnc(NCCNc3ccc(C#N)cn3)nc2-c2ccc(Cl)cc2Cl)n1 [CHIR-99021] | 0.79 ± 0.06 | 
CC(=O)Nc1ccc(C(=O)Nc2ccccc2N)cc1 [CI-994] |  | enhancement of secreted PGRN-Luc signal [2]: either weakly or entirely unable to enhance secreted PGRN
c1ccc([C@@H]2C[C@H]2NC2CCNCC2)cc1 [GSK-LSD1] | 0.96 ± 0.11 | 
NNCCc1ccc(NC(=O)CCCc2ccccc2)cc1 [Bizine] | 0.92 ± 0.12 | 
(-)-Eseroline fumarate | 1.10 ± 0 | GRN Fold-change (Norm. to GAPDH) ± Std. Error ([1]; dose 25 µM): 0.79 ± 0.46
CCn1cc(-c2ccnc3[nH]c(-c4cccc(CN(C)C)c4)cc23)c(-c2ccc(NC(=O)N(C)C)cc2)n1 [GSK1070916] |  | GRN Fold-change (Norm. to GAPDH) ± Std. Error ([1]; dose 1 µM): 1.45 ± 0
CCOC(=O)CCNc1cc(N2CCc3ccccc3CC2)nc(-c2ccccn2)n1 [GSK-J4] | 0.76 ± 0.03 | 
O=C(Nc1c(Cl)cncc1Cl)c1ccc(OC(F)F)c(OCC2CC2)c1 [Roflumilast] | 1.01 ± 0.09 | 
COc1cc2nc(N3CCCN(C)CC3)nc(NC3CCN(Cc4ccccc4)CC3)c2cc1OC [BIX01294] |  | GRN Fold-change (Norm. to GAPDH) ± Std. Error ([1]; dose 1 µM): 0.80 ± 0.04
CNC(=O)Oc1ccc2c(c1)[C@]1(C)CCN(C)[C@@H]1N2C [Eserine] |  | GRN Fold-change (Norm. to GAPDH) ± Std. Error ([1]; dose 25 µM): 0.73 ± 0.15
CCOC(=O)Nc1cc(-c2ccc(C)c(NS(C)(=O)=O)c2)nn2c(C)nnc12 [Bromosporine, bromosporine] | 3.44 ± 0.25 | GRN Fold-change (Norm. to GAPDH) ± Std. Error ([1]; dose 10 µM, listed as bromosporine): active enhancers of GRN mRNA
Cc1c(OCC(F)(F)F)ccnc1C[S+]([O-])c1nc2ccccc2[nH]1 (stereo not shown) [Lanosoprazole] | 1.37 ± 0.23 | 
CN(C)Cc1c(C(=O)NCCOc2ccc(C(=O)NO)cc2)oc2ccccc12 [PCI-24781] |  | GRN Fold-change (Norm. to GAPDH) ± Std. Error ([1]; dose 1 µM): 3.68 ± 0.27
COC1CCC(C(=O)c2ccc3nc4c(cc3c2)CCCO4)CC1 (stereo not shown) [JNJ16259685] | 1.00 ± 0.10 | 
CC(/C=C/C(=O)NO)=C\[C@@H](C)C(=O)c1ccc(N(C)C)cc1 [trichostatin A] |  | enhancement of internal PGRN-Luc signal [2]: able to enhance both internal and secreted PGRN at sub-µM concentrations; enhancement of secreted PGRN-Luc signal [2]: able to enhance both internal and secreted PGRN at sub-µM concentrations
CCNC(=O)c1cc2c(-c3cc(C(C)(C)O)ccc3Oc3c(C)cc(F)cc3C)cn(C)c(=O)c2[nH]1 [ABBV-744] |  | enhancement of PGRN protein levels [3]: ~ 30%; PGRN protein levels, dose-response ([3]; various doses): mid to high nM concentrations were sufficient to enhance PGRN protein levels
O=C(CCCCCCNC(=O)c1cnc(N(c2ccccc2)c2ccccc2)nc1)NO [ACY-1215] | 3.63 ± 0.57 | 
N#CC[C@H](C1CCCC1)n1cc(-c2ncnc3[nH]ccc23)cn1 [Ruxolitinib] | 1.26 ± 0.04 | 
COCc1nc2cnc3cc(-c4c(C)noc4C)c(OC[C@H]4CCNC4)cc3c2n1[C@H](C)c1ccccc1 [iBET-BD1] |  | enhancement of PGRN protein levels [3]: unable to enhance PGRN protein levels
Cn1cc(-c2ccncc2)c(-c2ccc(OCc3ccc4ccccc4n3)cc2)n1 [PF-2545920] | 1.29 ± 0.16 | 
O=C(CCCCC[C@@H]1NC(=O)[C@H]2CCCCN2C(=O)[C@H](Cc2ccccc2)NC(=O)[C@H](Cc2ccccc2)NC1=O)C1CO1 (stereo partly shown) [trapoxin A] (cyclo(FF[dPip][Aoe(9ξ)])) |  | enhancement of internal PGRN-Luc signal [2]: able to enhance both internal and secreted PGRN at sub-µM concentrations; enhancement of secreted PGRN-Luc signal [2]: able to enhance both internal and secreted PGRN at sub-µM concentrations
